Patent US20080193619A1, “Use of Fullerence C60 as an Oil Stabilizer” (UNI PHARMA HOLDING AS, priority 2005, published 2008)

How the values were obtained:
[1] = In vitro experiments: antioxidant activity
[2] = In vitro experiments: cytotoxicity and hepatotoxicity; format: cell-based; settings: concentrations up to 100 mM in water
[3] = In vivo experiments: toxicity, immunogenicity, allergenicity; settings: dosages up to 25 mg/kg (0.0025% by weight) in aqueous solution
[4] = Organoleptic testing (taste and smell) of stabilized salmon oil; settings: salmon oil with the additive, organoleptic test
Experimental: With basis in salmon oil as a nutritional supplement, organoleptic characteristics (determination of the quality of the oil by taste and smell) are also of importance. Standardized methods for organoleptic testing were utilized: one drop of salmon oil was placed on the arm and applied in a thin layer by means of a piece of glass. After one minute the quality of the oil could be determined by taste and smell. Five different individuals were tested, once per week, to obtain independent results. […] Both smell and taste was satisfactory at this point in time, and better for fullerene, witch kept well for 600 days, than for rosemary, witch only kept for 300 days.

[5] = In vitro experiments: blood fibrillation
[6] = Storage (shelf life) test of salmon oil stabilized with antioxidant, degree of oxidation in fatty acids; design: degree of oxidation in fatty acids: unit not given here; settings: for degree of oxidation in fatty acids: fullerene C60 0.001%, rosemary 0.1%
Experimental: FIG. 2. Shelf life tests for salmon oil stabilized with fullerene or rosemary. The results are given as the change in the oxidation level of fatty acids in the oil. The antioxidants rosemary and fullerene were present at 0.1% and 0.001% by weight, respectively.
Research on storage of salmon oil was carried out at temperatures of 25° C. and 5° C. during the time period from Jun. 11, 2003 to Nov. 10, 2004 (17 months). The quality of the rosemary and fullerene C60 as antioxidants in salmon oil was studied in parallel during the entire duration of the experiment.
The concentration of the two chosen antioxidants used in the experiment were obtained by an addition of 0.1% rosemary (the same concentration used in the products UNIC Omega-3 and AniMega) and 0.001% fullerene C60.
Standard methods of defining the degree of oxidation in fatty acids were used during selected time periods during the storage test. FIG. 2. presents data from a storage temperature of 5° C.

cellular membranes = test: In vitro experiments: cellular respiration and cellular membranes; format: cell-based
[7] = concentrations up to 100 mM in water

effect on blood fibrillation [5]: no bearing on blood fibrillation
keeping time of stabilized fish oil ([6]; fish oil stabilized with the antioxidant): 600 days
inhibition of cellular respiration (cellular membranes; [7]): does not inhibit cellular respiration
SMILES: c12c3c4c5c1c1c6c7c2c2c8c3c3c9c4c4c%10c5c5c1c1c6c6c%11c7c2c2c7c8c3c3c8c9c4c4c9c%10c5c5c1c1c6c6c%11c2c2c7c3c3c8c4c4c9c5c1c1c6c2c3c41 [fullerene C60]
antioxidant activity compared with ionol, vitamin E and beta-carotene [1]: greater than ionol, vitamin E, and beta-carotene
cytotoxicity [2]: not cytotoxic
hepatotoxicity [2]: not cytotoxic or hepatoxic
allergenicity in vivo [3]: not toxic, immunogenic, or an allergen
immunogenicity in vivo [3]: not toxic, immunogenic
toxicity in vivo [3]: not toxic
time the oil kept (smell and taste) [4]: 600 days
degree of oxidation in fatty acids ([6]; salmon oil, 5 C., day 0 (11.06)): 0.00036
degree of oxidation in fatty acids ([6]; salmon oil, 5 C., day 14 (25.06)): 0.00083
degree of oxidation in fatty acids ([6]; salmon oil, 5 C., day 81 (8.09)): 0.0010
degree of oxidation in fatty acids ([6]; salmon oil, 5 C., day 95 (22.09)): 0.00095
degree of oxidation in fatty acids ([6]; salmon oil, 5 C., day 109 (6.10)): 0.0014
degree of oxidation in fatty acids ([6]; salmon oil, 5 C., day 123 (20.10)): 0.0012
degree of oxidation in fatty acids ([6]; salmon oil, 5 C., day 185 (21.12)): 0.0023
degree of oxidation in fatty acids ([6]; salmon oil, 5 C., day 200 (05.01)): 0.0027
degree of oxidation in fatty acids ([6]; salmon oil, 5 C., day 214 (19.01)): 0.0028
degree of oxidation in fatty acids ([6]; salmon oil, 5 C., day 228 (02.02)): 0.0028
degree of oxidation in fatty acids ([6]; salmon oil, 5 C., day 242 (16.02)): 0.0030
degree of oxidation in fatty acids ([6]; salmon oil, 5 C., day 256 (2.03)): 0.0030
degree of oxidation in fatty acids ([6]; salmon oil, 5 C., day 270 (16.03)): 0.0031
degree of oxidation in fatty acids ([6]; salmon oil, 5 C., day 284 (30.03)): 0.0033
degree of oxidation in fatty acids ([6]; salmon oil, 5 C., day 298 (13.04)): 0.0037
degree of oxidation in fatty acids ([6]; salmon oil, 5 C., day 312 (27.04)): 0.0039
degree of oxidation in fatty acids ([6]; salmon oil, 5 C., day 326 (11.05)): 0.0040
degree of oxidation in fatty acids ([6]; salmon oil, 5 C., day 340 (25.05)): 0.0043
degree of oxidation in fatty acids ([6]; salmon oil, 5 C., day 354 (8.06)): 0.0046
degree of oxidation in fatty acids ([6]; salmon oil, 5 C., day 368 (22.06)): 0.0048
degree of oxidation in fatty acids ([6]; salmon oil, 5 C., day 372 (06.07)): 0.0050
degree of oxidation in fatty acids ([6]; salmon oil, 5 C., day 386 (20.07)): 0.0052
degree of oxidation in fatty acids ([6]; salmon oil, 5 C., day 414 (15.08)): 0.0054
degree of oxidation in fatty acids ([6]; salmon oil, 5 C., day 428 (29.08)): 0.0055
degree of oxidation in fatty acids ([6]; salmon oil, 5 C., day 442 (12.09)): 0.0058
degree of oxidation in fatty acids ([6]; salmon oil, 5 C., day 456 (26.09)): 0.0061
degree of oxidation in fatty acids ([6]; salmon oil, 5 C., day 470 (10.10)): 0.0065
degree of oxidation in fatty acids ([6]; salmon oil, 5 C., day 484 (24.10)): 0.0066
degree of oxidation in fatty acids ([6]; salmon oil, 25 C., day 0 (11.06)): 0.00036
degree of oxidation in fatty acids ([6]; salmon oil, 25 C., day 14 (25.06)): 0.00076
degree of oxidation in fatty acids ([6]; salmon oil, 25 C., day 81 (8.09)): 0.0020
degree of oxidation in fatty acids ([6]; salmon oil, 25 C., day 95 (22.09)): 0.0031
degree of oxidation in fatty acids ([6]; salmon oil, 25 C., day 109 (6.10)): 0.0090
degree of oxidation in fatty acids ([6]; salmon oil, 25 C., day 123 (20.10)): 0.0015
degree of oxidation in fatty acids ([6]; salmon oil, 25 C., day 185 (21.12)): 0.012
degree of oxidation in fatty acids ([6]; salmon oil, 25 C., day 200 (05.01)): 0.015
degree of oxidation in fatty acids ([6]; salmon oil, 25 C., day 214 (19.01)): 0.022
degree of oxidation in fatty acids ([6]; salmon oil, 25 C., day 228 (02.02)): 0.034
degree of oxidation in fatty acids ([6]; salmon oil, 25 C., day 242 (16.02)): 0.037
degree of oxidation in fatty acids ([6]; salmon oil, 25 C., day 256 (2.03)): 0.038
degree of oxidation in fatty acids ([6]; salmon oil, 25 C., day 270 (16.03)): 0.040
degree of oxidation in fatty acids ([6]; salmon oil, 25 C., day 284 (30.03)): 0.041
degree of oxidation in fatty acids ([6]; salmon oil, 25 C., day 298 (13.04)): 0.044
degree of oxidation in fatty acids ([6]; salmon oil, 25 C., day 312 (27.04)): 0.047
degree of oxidation in fatty acids ([6]; salmon oil, 25 C., day 326 (11.05)): 0.049
degree of oxidation in fatty acids ([6]; salmon oil, 25 C., day 340 (25.05)): 0.054
degree of oxidation in fatty acids ([6]; salmon oil, 25 C., day 354 (8.06)): 0.059
degree of oxidation in fatty acids ([6]; salmon oil, 25 C., day 368 (22.06)): 0.063
degree of oxidation in fatty acids ([6]; salmon oil, 25 C., day 372 (06.07)): 0.066
degree of oxidation in fatty acids ([6]; salmon oil, 25 C., day 386 (20.07)): 0.068
degree of oxidation in fatty acids ([6]; salmon oil, 25 C., day 414 (15.08)): 0.070
degree of oxidation in fatty acids ([6]; salmon oil, 25 C., day 428 (29.08)): 0.072
degree of oxidation in fatty acids ([6]; salmon oil, 25 C., day 442 (12.09)): 0.080
degree of oxidation in fatty acids ([6]; salmon oil, 25 C., day 456 (26.09)): 0.085
degree of oxidation in fatty acids ([6]; salmon oil, 25 C., day 470 (10.10)): 0.088
degree of oxidation in fatty acids ([6]; salmon oil, 25 C., day 484 (24.10)): 0.089
effectiveness as additive (antioxidant) compared with rosemary ([6]; salmon oil, temperature of 5 C): more effective additive than rosemary
inhibition of membrane catalytic activity (cellular membranes; [7]): does not inhibit cellular respiration or inhibition of membrane catalytic activity
stabilization of cellular membranes (cellular membranes; stability during unfavourable conditions): stabilizes cellular membranes
